Test results from the NIST ThermoML archive (doi:10.1016/j.jct.2017.06.020).
± gives the expanded uncertainty stated by the source.

How the values were obtained:
[1] = refractive index (Na D-line) (dimensionless); details: 298.15 K; 101.3 kPa; Liquid; Standard Abbe refractometry
[2] = 298.15 K; 101.3 kPa; Liquid; Vibrating tube method
[3] = relative permittivity at various frequencies (dimensionless); details: 298.15 K; 101.3 kPa; Liquid; Frequency=0.01 MHz; Coaxial cylinder capacitor
[4] = refractive index (Na D-line) (dimensionless); xn = mol fraction of the nth substance listed; details: 298.15 K, 101.3 kPa, Liquid, Standard Abbe refractometry
[5] = relative permittivity at various frequencies (dimensionless); xn = mol fraction of the nth substance listed; details: 298.15 K, 101.3 kPa, Liquid, Frequency=0.01 MHz, Coaxial cylinder capacitor

CC(C)CCO [3-methylbutan-1-ol]
refractive index [1]: 1.4048 ± 0.0011 | mass density [2]: 807.16 ± 3.2 kg/m3 | relative permittivity [3]: 14.96 ± 0.04

CC(C)CCO [3-methylbutan-1-ol] + CC(=O)c1ccccc1
refractive index ([4]; x2 = 0): 1.4048 ± 0.0011 | relative permittivity ([5]; x2 = 0): 14.96 ± 0.04

CC(C)CCO [3-methylbutan-1-ol] + CC(C)=O
refractive index ([4]; x2 = 0): 1.4048 ± 0.0011 | refractive index ([4]; x2 = 0.1): 1.4016 ± 0.0011 | refractive index ([4]; x2 = 0.2): 1.3981 ± 0.0011 | refractive index ([4]; x2 = 0.3): 1.3936 ± 0.0011 | refractive index ([4]; x2 = 0.4): 1.3893 ± 0.0011 | refractive index ([4]; x2 = 0.5): 1.3854 ± 0.0011 | refractive index ([4]; x2 = 0.6): 1.3799 ± 0.0011 | refractive index ([4]; x2 = 0.7): 1.3751 ± 0.001 | refractive index ([4]; x2 = 0.8): 1.3701 ± 0.001 | refractive index ([4]; x2 = 0.9): 1.3634 ± 0.0011 | relative permittivity ([5]; x2 = 0): 14.96 ± 0.04 | relative permittivity ([5]; x2 = 0.1): 14.72 ± 0.04 | relative permittivity ([5]; x2 = 0.2): 14.62 ± 0.04 | relative permittivity ([5]; x2 = 0.3): 14.71 ± 0.04 | relative permittivity ([5]; x2 = 0.4): 14.96 ± 0.04 | relative permittivity ([5]; x2 = 0.5): 15.44 ± 0.04 | relative permittivity ([5]; x2 = 0.6): 16.08 ± 0.04 | relative permittivity ([5]; x2 = 0.7): 16.95 ± 0.04 | relative permittivity ([5]; x2 = 0.8): 17.99 ± 0.05 | relative permittivity ([5]; x2 = 0.9): 19.21 ± 0.05

CC(C)CCO [3-methylbutan-1-ol] + CCC(C)=O
refractive index ([4]; x2 = 0): 1.4048 ± 0.0011 | refractive index ([4]; x2 = 0.099): 1.4024 ± 0.0011 | refractive index ([4]; x2 = 0.2): 1.4001 ± 0.0011 | refractive index ([4]; x2 = 0.3): 1.3972 ± 0.0011 | refractive index ([4]; x2 = 0.4): 1.3948 ± 0.0011 | refractive index ([4]; x2 = 0.499): 1.392 ± 0.0011 | refractive index ([4]; x2 = 0.599): 1.3891 ± 0.0011 | refractive index ([4]; x2 = 0.7): 1.3863 ± 0.0011 | refractive index ([4]; x2 = 0.8): 1.3829 ± 0.001 | refractive index ([4]; x2 = 0.9): 1.38 ± 0.001 | relative permittivity ([5]; x2 = 0): 14.96 ± 0.04 | relative permittivity ([5]; x2 = 0.099): 14.59 ± 0.04 | relative permittivity ([5]; x2 = 0.2): 14.38 ± 0.04 | relative permittivity ([5]; x2 = 0.3): 14.33 ± 0.04 | relative permittivity ([5]; x2 = 0.4): 14.44 ± 0.04 | relative permittivity ([5]; x2 = 0.499): 14.69 ± 0.04 | relative permittivity ([5]; x2 = 0.599): 15.12 ± 0.04 | relative permittivity ([5]; x2 = 0.7): 15.7 ± 0.04 | relative permittivity ([5]; x2 = 0.8): 16.43 ± 0.04 | relative permittivity ([5]; x2 = 0.9): 17.33 ± 0.04

CC(C)CCO [3-methylbutan-1-ol] + C[S+](C)[O-]
refractive index ([4]; x2 = 0): 1.4048 ± 0.0011 | refractive index ([4]; x2 = 0.1): 1.4071 ± 0.0011 | refractive index ([4]; x2 = 0.2): 1.4118 ± 0.0011 | refractive index ([4]; x2 = 0.3): 1.4168 ± 0.0011 | refractive index ([4]; x2 = 0.4): 1.4227 ± 0.0011 | refractive index ([4]; x2 = 0.5): 1.4305 ± 0.0011 | refractive index ([4]; x2 = 0.6): 1.4385 ± 0.0011 | refractive index ([4]; x2 = 0.7): 1.4459 ± 0.0011 | refractive index ([4]; x2 = 0.8): 1.4549 ± 0.0011 | refractive index ([4]; x2 = 0.9): 1.4651 ± 0.0011 | relative permittivity ([5]; x2 = 0): 14.96 ± 0.04 | relative permittivity ([5]; x2 = 0.1): 15.92 ± 0.05 | relative permittivity ([5]; x2 = 0.2): 17.56 ± 0.06 | relative permittivity ([5]; x2 = 0.3): 19.79 ± 0.06 | relative permittivity ([5]; x2 = 0.4): 22.45 ± 0.07 | relative permittivity ([5]; x2 = 0.5): 25.51 ± 0.08 | relative permittivity ([5]; x2 = 0.6): 28.95 ± 0.08 | relative permittivity ([5]; x2 = 0.7): 32.76 ± 0.09 | relative permittivity ([5]; x2 = 0.8): 37.01 ± 0.1 | relative permittivity ([5]; x2 = 0.9): 41.68 ± 0.11

CC(C)=O [acetone]
refractive index [1]: 1.3564 ± 0.001 | mass density [2]: 784.42 ± 3.1 kg/m3 | relative permittivity [3]: 20.69 ± 0.04

CC(C)=O [acetone] + CC(C)CCO
refractive index ([4]; x1 = 1): 1.3564 ± 0.001 | relative permittivity ([5]; x1 = 1): 20.69 ± 0.04

CC(C)=O [acetone] + CCCCCO
refractive index ([4]; x1 = 1): 1.3564 ± 0.001 | relative permittivity ([5]; x1 = 1): 20.69 ± 0.04

CC(=O)c1ccccc1 [acetophenone]
refractive index [1]: 1.5318 ± 0.0011 | mass density [2]: 1022.77 ± 4.2 kg/m3 | relative permittivity [3]: 17.51 ± 0.04

CC(=O)c1ccccc1 [acetophenone] + CC(C)CCO
refractive index ([4]; x1 = 0.101): 1.418 ± 0.0011 | refractive index ([4]; x1 = 0.199): 1.4303 ± 0.0011 | refractive index ([4]; x1 = 0.301): 1.4451 ± 0.0011 | refractive index ([4]; x1 = 0.4): 1.4573 ± 0.0011 | refractive index ([4]; x1 = 0.5): 1.4709 ± 0.0011 | refractive index ([4]; x1 = 0.6): 1.4817 ± 0.0011 | refractive index ([4]; x1 = 0.699): 1.4935 ± 0.0011 | refractive index ([4]; x1 = 0.8): 1.5063 ± 0.0011 | refractive index ([4]; x1 = 0.9): 1.5187 ± 0.0011 | refractive index ([4]; x1 = 1): 1.5318 ± 0.0011 | relative permittivity ([5]; x1 = 0.101): 14.65 ± 0.04 | relative permittivity ([5]; x1 = 0.199): 14.47 ± 0.04 | relative permittivity ([5]; x1 = 0.301): 14.39 ± 0.04 | relative permittivity ([5]; x1 = 0.4): 14.45 ± 0.04 | relative permittivity ([5]; x1 = 0.5): 14.66 ± 0.04 | relative permittivity ([5]; x1 = 0.6): 14.97 ± 0.04 | relative permittivity ([5]; x1 = 0.699): 15.44 ± 0.04 | relative permittivity ([5]; x1 = 0.8): 16.03 ± 0.04 | relative permittivity ([5]; x1 = 0.9): 16.71 ± 0.04 | relative permittivity ([5]; x1 = 1): 17.51 ± 0.04
